Structures are written as SMILES.

Common to all, as to format: in vivo, rat
The test system of test [1] is TNBS (trinitrobenzenesulfonic acid) model of colitis. Description: TNBS model of colitis, macroscopic damage score (MDS). As to conditions: for MDS, mean: 72 h after TNBS, 0-13 scale. How it is done:
(§1) In this example, the TNBS (trinitrobenzenesulfonic acid) model of colitis was used to characterize the effects of CBD alone, THC alone and a combination of CBD and THC (in two different ratios) on inflammation and in vitro motility and secretory parameters.
(§2) Colitis was evoked in male Wistar rats by intra-colonic administration of 6.7 mg TNBS in 0.25 ml 25% ethanol. The degree of inflammation was quantified using a macroscopic damage score (MDS, 0-13 scale) and myeloperoxidase (MPO) activity.
(§3) CBD was used at doses of 5, 10, 15 and 20 mg/kg. THC was used at doses of 5, 10 and 20 mg/kg. In addition THC at doses of 5 and 10 mg/kg was administered in combination with CBD at a dose of 10 mg/kg.
(§4) Doses were administered i.p., once daily starting 0.5 hour before TNBS administration and animals (n=6-11 per group) were sacrificed 72 hours after colitis induction.

In test [2] the test system is myeloperoxidase (MPO) activity. Nature of the test: TNBS model of colitis, myeloperoxidase (MPO) activity. As to conditions: for MPO, mean: 72 h after TNBS. The method, then: as §1, §2, §3, §4
Test [3] has as its system mucosa-submucosa preparations. Description: Ussing chamber, secretory response evoked by veratridine (nerve stimulation), TNBS colitis rats. The method, then:
(§5) Using the Ussing chamber technique, secretory responses evoked by veratridine (a nerve stimulant, 1×10^−5M) were assessed and expressed as % response to carbachol (1×10−5M).
as §3, §4

In test [4] the test system is mucosa-submucosa preparations. Description: Ussing chamber, secretory response to carbachol (ΔIsc), TNBS colitis rats. As to conditions: THC alone, data not shown. The method, then: as §5, §3, §4

For the molecule `C=C(C)[C@@H]1CCC(C)=C[C@H]1c1c(O)cc(CCCCC)cc1O` [CBD, cannabidiol], the “MDS, mean” value in test [1] (CBD 5 mg/kg i.p. once daily, vehicle 5.46) was determined as 6.75; in test [1] (CBD 15 mg/kg i.p. once daily, vehicle 5.46) it was 5.60; in test [1] (CBD 20 mg/kg i.p. once daily, vehicle 5.46) it was 4.60. In addition, the “MPO, mean” value in test [2] (CBD 5 mg/kg i.p. once daily, vehicle 6.03) was found to be 5.38 ngHRP/mg protein; in test [2] (CBD 10 mg/kg i.p. once daily, vehicle 6.03), 4.65 ngHRP/mg protein; in test [2] (CBD 15 mg/kg i.p. once daily, vehicle 6.03) it was 4.00 ngHRP/mg protein; in test [2] (CBD 20 mg/kg i.p. once daily, vehicle 6.03), 2.68 ngHRP/mg protein. The “effect on MPO across doses” value in test [2] (CBD 5, 10, 15 and 20 mg/kg i.p.) was “reduced MPO in a dose dependent manner, but the effect was not significant”.

For `CCCCCc1cc(O)c2c(c1)OC(C)(C)[C@@H]1CCC(C)=C[C@@H]21` [THC, tetrahydrocannabinol], in test [3] (THC 10 mg/kg i.p. alone, expressed as % response to carbachol, vehicle 24.4±8.2), the “secretory response to nerve stimulation” value was 30.3±7.5. The “secretory responses to nerve stimulation” value in test [3] (THC alone, data not shown) is “did not affect”. Besides, the “MDS, mean” value in test [1] (THC 5 mg/kg i.p. once daily, vehicle 6.00) came to 6.5; in test [1] (THC 20 mg/kg i.p. once daily, vehicle 6.00), 4.67. In addition, the “dose-response relationship on MDS” value in test [1] (THC 5, 10 and 20 mg/kg i.p.) is listed as “bell-shaped pattern”. Further, the “MPO, mean” value in test [2] (THC 5 mg/kg i.p. once daily, vehicle 3.35) stood at 4.29 ngHRP/mg protein. In test [4], the responses to carbachol result is “not significantly increased”.

Values taken from US20100286098A1, “USE OF TETRAHYDROCANNABINOL AND/OR CANNABIDIOL FOR THE TREATMENT OF INFLAMMATORY BOWEL DISEASE” (GW Pharma Limited, priority 2007, published 2010).
